Here are results for 5 compounds from patent US8637572B2, “Composition for promoting collagen production” (Shiseido Company, Ltd., priority 2009, dated 2014).

The subject of experiment [1] is human neonatal dermal fibroblasts. Nature of the experiment: Type I collagen production: PIP (C-terminal peptide of type I procollagen) in culture supernatant by EIA. Type of experiment: cell-based. The following applies: for effect on promoting type I collagen production compared to the negative control (Bonferroni/Dunn test): under every concentration condition. As for the experimental part: (§1) Commercially available human neonatal dermal fibroblasts (Cryo NHDF-Neo, manufactured by Sanko Junyaku Co., Ltd.) were used. The cells were inoculated in a commercially available 24-well plate to have 2×10^5 cells per well. The cells were then cultured for four hours in a commercially available medium for cell culture (D-MEM (1 g/L glucose), manufactured by Wako Pure Chemical Industries, Ltd.) to which 10% bovine fetal serum was supplemented (herein below, referred to as a “standard medium”) in a 5% CO2 and saturated water vapor atmosphere at 37° C. (degrees Celsius).
(§2) Subsequently, the medium was switched to a commercially available medium for cell culture (D-MEM (1 g/L glucose), manufactured by Wako Pure Chemical Industries, Ltd.) supplemented with 0.5% bovine fetal serum (herein below, referred to as “low-serum medium”) and cultured for approximately one day in a 5% CO2 and saturated water vapor atmosphere at 37° C. (degrees Celsius). D-aspartic acid (manufactured by Wako Pure Chemical Industries, Ltd., 018-04821) was added to the low-serum medium to have the concentration of 0.01 μM (micro-molar), 0.1 μM (micro-molar), […] μM (micro-molar), or 320 μM (micro-molar). As a positive control, magnesium L-ascorbyl phosphate (L-Ascorbic Acid Phosphate Magnesium Salt n-Hydrate, herein below, referred to as “APM”, manufactured by Wako Pure Chemical Industries, Ltd., 013-19641) was added to the low-serum medium to have the concentration of 150 μM (micro-molar), 250 μM (micro-molar), or 500 μM (micro-molar). Further, the low-serum medium described above to which neither APM nor D-aspartic acid had been added was employed as a negative control.
After completing the cell culture for two days, the culture supernatant was collected and the concentration of C-terminal peptide of type I procollagen (herein below, referred to as “PIP”) produced by human neonatal dermal fibroblasts was measured by using Procollagen type I C-peptide EIA kit (manufactured by Takara Bio Inc.) according to the manufacturer's instruction.
The cell culture, addition of amino acids, and quantification of production amount of type I collagen were carried out in the same manner as the Example 1. As an amino acid, D-alanine (manufactured by Peptide Institute, Inc., 2801) was used at the concentrations of 0.01 μM (micro-molar), 0.1 μM (micro-molar), 10 μM (micro-molar), 1000 μM (micro-molar), and 17400 μM (micro-molar). Further, the low-serum medium described above to which neither APM nor D-alanine had been added was employed as a negative control.
The cell culture, addition of amino acids, and quantification of production amount of type I collagen were carried out in the same manner as the Example 1. D-Aspartic acid (manufactured by Wako Pure Chemical Industries, Ltd., 018-04821) of 0.1 μM (micro-molar) and L-aspartic acid (manufactured by Wako Pure Chemical Industries, Ltd., 013-04832) of 0.1 μM (micro-molar) were used as amino acids. Further, the low-serum medium described above to which neither L-aspartic acid nor D-aspartic acid had been added was employed as a negative control.
The cell culture, addition of amino acids, and quantification of production amount of type I collagen were carried out in the same manner as the Example 1. D-Alanine (manufactured by Peptide Institute, Inc., 2801) of 0.1 μM (micro-molar) or 150 μM (micro-molar) and L-alanine (manufactured by Peptide Institute, Inc., 2701) of 0.1 μM (micro-molar) or 150 μM (micro-molar) were used as amino acids. Further, the low-serum medium described above to which neither L-alanine nor D-alanine had been added was employed as a negative control.

The test system is the same in experiment [2]. In words: Type I atelocollagen production after pepsin treatment, by type I human collagen ELISA. To be noted: for promotion of type I collagen production compared to the negative control (Bonferroni/Dunn test): 0.1 μM, atelocollagen ELISA. It is filed as cell-based. As for the experimental part: as §1, §2
The cell culture and addition of amino acids were carried out in the same manner as the Example 1. D-Aspartic acid (manufactured by Wako Pure Chemical Industries, Ltd., 018-04821) of 0.1 μM (micro-molar) and D-alanine (manufactured by Peptide Institute, Inc., 2801) of 0.1 μM (micro-molar) or 0.001 μM (micro-molar) were used as amino acids. Further, the low-serum medium described above to which neither D-aspartic acid nor D-alanine had been added was employed as a negative control. As a positive control, APM was added to the low-serum medium described above to have the concentration of 250 μM (micro-molar). In order to evaluate the production amount of type I collagen, type I procollagen and tropocollagen produced by human neonatal dermal fibroblasts were treated with pepsin (800 to 2500 unit/mg, P7000, manufactured by SIGMA), and the concentration of type I atelocollagen was measured by type I human collagen ELISA (EC1-E105, manufactured by AC Biotechnologies) according to the manufacturer's instruction.

[3] abbreviates: Example 3, added at 0.1 μM, negative control 361 ng/mL.
Where [4] appears, read: Example 4, added at 0.1 μM, negative control 361 ng/mL.
[5] abbreviates: Example 4, added at 150 μM, negative control 361 ng/mL.
Where [6] appears, read: Example 5 results (1), added at 0.1 μM, negative control 1.8 μg/mL.

As for `N[C@@H](CC(=O)O)C(=O)O` [L-aspartic acid, reference compound], in experiment [1] (setting [3]), the PIP concentration is given as 406 ng/mL.
With `C[C@@H](N)C(=O)O` [D-alanine], the PIP concentration in experiment [1] (Example 2, added at 0.01 μM, negative control 551 ng/mL) worked out at 750 ng/mL; in experiment [1] (Example 2, added at 0.1 μM, negative control 551 ng/mL) it was 789 ng/mL; in experiment [1] (Example 2, added at 10 μM, negative control 551 ng/mL) it was 876 ng/mL; in experiment [1] (Example 2, added at 1000 μM, negative control 551 ng/mL), 823 ng/mL; in experiment [1] (Example 2, added at 17400 μM, negative control 551 ng/mL) it was 799 ng/mL; in experiment [1] (setting [4]), 502 ng/mL. The compound also displayed a PIP concentration in experiment [1] (setting [5]) of 450 ng/mL. Also, the “effect on promoting type I collagen production compared to the negative control (Bonferroni/Dunn test)” value in experiment [1] (Example 2) is “statistically significant effect”. The “promotion of type I collagen production compared to the negative control (Bonferroni/Dunn test)” value is on record as “promoted with statistical significance” in experiment [1] (Example 4, 0.1 μM or 150 μM) and “promoted with statistical significance” in experiment [2] (Example 5 results (1)). Further, the “concentration of type I atelocollagen” value in experiment [2] (setting [6]) is 4.0 μg (microgram)/mL; in experiment [2] (Example 5 results (2), added at 0.001 μM, negative control 1.7 μg/mL) it was 2.1 μg (microgram)/mL.
As to “magnesium L-ascorbyl phosphate [APM, reference compound]”, the PIP concentration in experiment [1] (Example 1, added at 150 μM, two days culture, low-serum medium, negative control 583 ng/mL) turned out to be 1183 ng/mL; in experiment [1] (Example 1, added at 250 μM, negative control 583 ng/mL), 1666 ng/mL; in experiment [1] (Example 1, added at 500 μM, negative control 583 ng/mL), 1416 ng/mL; in experiment [1] (Example 2, added at 150 μM, negative control 551 ng/mL), 1183 ng/mL; in experiment [1] (Example 2, added at 250 μM, negative control 551 ng/mL), 1666 ng/mL; in experiment [1] (Example 2, added at 500 μM, negative control 551 ng/mL) it was 1416 ng/mL. In addition, the “effect on promoting type I collagen production compared to the negative control (Bonferroni/Dunn test)” value in experiment [1] (Example 1) and in experiment [1] (Example 2) was “statistically significant effect” each time. For the same compound, the “concentration of type I atelocollagen” value was 3.9 μg (microgram)/mL in experiment [2] (Example 5 results (1), added at 250 μM, negative control 1.8 μg/mL) and 2.6 μg (microgram)/mL in experiment [2] (Example 5 results (2), added at 250 μM, negative control 1.7 μg/mL).
As to `C[C@H](N)C(=O)O` [L-alanine, reference compound], the results for the PIP concentration in experiment [1] (setting [4]) and in experiment [1] (setting [5]) were 405 ng/mL and 413 ng/mL, respectively.
As for `N[C@H](CC(=O)O)C(=O)O` [D-aspartic acid], the “effect on promoting type I collagen production in comparison with APM” value in experiment [1] (Example 1, 0.01 μM to 100 μM similar to APM at 150 μM) is on record as “prominently more potent effect on promoting type I collagen production than APM”. Besides, the PIP concentration in experiment [1] (Example 1, added at 0.01 μM, negative control 583 ng/mL) stood at 1286 ng/mL; in experiment [1] (Example 1, added at 0.1 μM, negative control 583 ng/mL) it was 1159 ng/mL; in experiment [1] (Example 1, added at 10 μM, negative control 583 ng/mL), 1117 ng/mL; in experiment [1] (Example 1, added at 100 μM, negative control 583 ng/mL) it was 1119 ng/mL; in experiment [1] (Example 1, added at 320 μM, negative control 583 ng/mL), 1007 ng/mL; in experiment [1] (setting [3]), 456 ng/mL. The “effect on promoting type I collagen production compared to the negative control (Bonferroni/Dunn test)” value in experiment [1] (Example 1) is “statistically significant effect”. The “promotion of type I collagen production compared to the negative control (Bonferroni/Dunn test)” value is “promoted with statistical significance” in experiment [1] (Example 3, 0.1 μM) and “promoted with statistical significance” in experiment [2] (Example 5 results (1)). In addition, the “concentration of type I atelocollagen” value in experiment [2] (setting [6]) was 3.8 μg (microgram)/mL.
